EPA's ToxValDB 9.5
Several values for one entry are separate records, joined by “and”; a condition that tells them apart may be missing. Equal entries are not always repeated.

Experiments:
[1] = test system: Rattus norvegicus
[2] = test system: Rattus norvegicus; details: subchronic, oral, diet, Fischer 344, Hematology: Hct decrease, Hgb decrease, RBC decrease + Blood Chemistry: CPK increase + Absolute Organ Weight: Liver decrease + Relative …
[3] = test system: Mus musculus; details: repeat dose other; oral
[4] = test system: Homo sapiens; details: clinical, inhalation
[5] = test system: Tatera sp.; details: intermediate; duration: 3 months; Inhalation; M/F; Mongolian; neurological
[6] = test system: Rattus norvegicus; details: repeat dose other; oral
[7] = test system: Phasianus colchicus; details: oral
[8] = test system: Mus musculus; details: acute; duration: 1 days; oral; gavage; F; B6C3F1; immunological
[9] = test system: Cavia porcellus; details: subchronic; duration: 90 days; oral; diet; M/F; Guinea Pig; lymphatic
[10] = test system: Monkey; details: oral, diet
[11] = test system: Mus musculus; details: inhalation
[12] = test system: Monkey; details: subchronic; duration: 3 months; inhalation; Cynomolgus
[13] = test system: Cavia sp.; details: acute; inhalation; FTD Hartley
[14] = test system: Tytonidae; details: oral
[15] = test system: Rattus norvegicus; remark: listed apart in the source
[16] = test system: Rattus norvegicus; details: chronic, duration: 2 years, oral, diet
[17] = test system: Canidae; details: chronic, duration: 1 years, oral, diet, Dog Other, Decreased weight gain in males and neurologic findings in both sexes
[18] = test system: Perdix perdix; details: oral
[19] = test system: Oryctolagus sp.; details: reproduction developmental; duration: 22 days; oral; gavage; M/F; New Zealand; neurological
[20] = test system: Rattus norvegicus; details: Sprague-Dawley; for LC50: acute; for NOAEL: reproduction developmental
[21] = test system: Mus musculus; details: subchronic; duration: 13 weeks; inhalation; intermittent; Nasal mucosa: Inflammation
[22] = test system: Sus scrofa; details: chronic; duration: 105 days; oral; diet; Not specified; Gastrointestinal system: Disturbance
[23] = test system: Gallus sp.; details: subchronic; duration: 90 days; oral; F; ataxia, delayed neurotoxicity and weight loss
[24] = test system: Gallus sp.; details: subchronic; duration: 3 months; oral; capsule; Nervous system: Ataxia + Nervous system: Delayed neurotoxicity + Whole body: Decreased weight
[25] = chronic, duration: 2 years, oral, diet, M/F, liver lesions
[26] = chronic, duration: 2 years, oral, diet, F, increased incidence of marked progressive glomerulonephrosis and blood vessel aneurysms in males + Reduced body weight gain in males and …
[27] = subchronic, inhalation, M, nasal lesions of the olfactory mucosa

## CC(Cl)(Cl)Cl [1,1,1-Trichloroethane]
[1]; chronic, duration: 2 years, inhalation, M/F, liver histopathologic changes
  NOAEL: 8190 mg/m3
[2]; F
  NOEL: 310 mg/kg-day
[2]; M/F
  NOEL: 480 mg/kg-day
[3]
  NOAEL: 1000 mg/kg-day
[4]; duration: 3.5 hours, M, neurological
  LOAEL: 955 mg/m3
[5]
  NOAEL: 70 ppm

## Clc1cc2c(cc1Cl)Oc1cc(Cl)c(Cl)cc1O2 [2,3,7,8-Tetrachlorodibenzo-p-dioxin]
[6]
  LOAEL: 1e-05 mg/kg-day
  NOAEL: 1e-06 mg/kg-day
[7]
  LOAEL: 0.00014 mg/kg-day
  NOAEL: 1.4e-05 mg/kg-day
[8]
  NOAEL: 5e-06 mg/kg-day
[9]
  NOAEL: 7e-07 mg/kg-day
[10]; developmental, duration: 16 months, M/F, Rhesus, developmental
  LOAEL: 1.2e-07 mg/kg-day

## [C-]#[O+] [Carbon monoxide]
[11]; acute, NIH/Nmri Swiss albino
  LC50: 2070 mg/m3 and ≥ 1830 mg/m3 and ≤ 2240 mg/m3
[11]; reproduction developmental, duration: 7 days, CD1, generation: F1
  LOAEL: 143 mg/m3
[12]
  LOAEL: 115 mg/m3
[13]
  LC50: 2070 mg/m3 and ≥ 1830 mg/m3 and ≤ 2240 mg/m3

## ClC1=C(Cl)[C@]2(Cl)[C@@H]3[C@@H]4C[C@@H]([C@H]5O[C@@H]45)[C@@H]3[C@@]1(Cl)C2(Cl)Cl [Dieldrin]
[1]; [25]
  LOAEL: 0.05 mg/kg-day
  NOAEL: 0.005 mg/kg-day
[6]
  LOAEL: 0.2 mg/kg-day
  NOAEL: 0.02 mg/kg-day
[14]
  NOAEL: 0.077 mg/kg-day
[10]; subchronic, duration: 55 days, M, Squirrel Monkey, neurological
  NOAEL: 0.01 mg/kg-day
[15]; chronic, duration: 2 years, oral, diet, M/F, Carworth Farms E, hepatic
  NOAEL: 0.005 mg/kg-day
[16]; Liver: Lesions
  NOAEL: 0.005 mg/kg-day

## O=S1OCC2C(CO1)C1(Cl)C(Cl)=C(Cl)C2(Cl)C1(Cl)Cl (stereo not drawn) [Endosulfan]
[17]; F
  LOAEL: 1.9 mg/kg-day
  NOAEL: 0.57 mg/kg-day
[17]; M
  LOAEL: 2.1 mg/kg-day
[1]; [26]
  LOAEL: 3.8 mg/kg-day
  NOAEL: 0.7 mg/kg-day
[1]; chronic, duration: 2 years, oral, diet, M, increased incidence of marked progressive glomerulonephrosis and blood vessel aneurysms in males + Reduced body weight gain in males and …
  LOAEL: 2.9 mg/kg-day
[1]; chronic, duration: 2 years, oral, diet, M, reduced body weight gain (males) and females increased incidence of marked progressive glomerulonephrosis and blood vessel aneurysms (males)
  NOAEL: 0.6 mg/kg-day
[18]
  NOAEL: 10 mg/kg-day
[6]
  NOAEL: 0.15 mg/kg-day
[19]
  NOAEL: 0.7 mg/kg-day
[15]; chronic, duration: 22 weeks, oral, diet, M, Wistar, immunological
  NOAEL: 0.45 mg/kg-day
[16]; Blood vessel: Aneurysms + Kidney: Glomerulonephrosis + Whole body: Decreased weight gain
  NOAEL: 1.17 mg/kg-day

## S [Hydrogen sulfide]
[1]; [27]
  LOAEL: 41.7 mg/m3
  NOAEL: 13.9 mg/m3
[20]; inhalation
  LC50: 619 mg/m3 and ≥ 580 mg/m3 and ≤ 659 mg/m3
[20]; duration: 18 days, inhalation, F
  NOAEL: 112 mg/m3
[20]; inhalation, generation: F0
  NOAEL: 112 mg/m3
[20]; inhalation, generation: F1
  NOAEL: 112 mg/m3
[15]; subchronic, duration: 10 weeks, inhalation, M, Sprague-Dawley, respiratory
  NOAEL: 13.9 mg/m3
[4]; duration: 30 minutes, M/F, respiratory
  LOAEL: 2.79 mg/m3
[21]
  NOAEL: 42 mg/m3
[22]
  NOAEL: 3.1 mg/kg-day

## CCCCSP(=O)(SCCCC)SCCCC [Tribufos]
[23]
  LOAEL: 0.5 mg/kg-day
  NOEL: 0.1 mg/kg-day
[20]; Inhalation
  LC50: ≥ 2460 mg/m3 and ≤ 4650 mg/m3
[15]; reproduction developmental, duration: 364 days, oral, diet, M, Sprague-Dawley, neurological
  NOAEL: 0.28 mg/kg-day
[15]; subchronic, duration: 13 weeks, inhalation, head only, M/F, Wistar, neurological
  NOAEL: 2.43 mg/m3
[24]
  NOEL: 0.1 mg/kg-day
